Source: ChEMBL document CHEMBL1149690, “Membrane permeable esterase-activated fluorescent imaging probe” (Bioorg Med Chem Lett, 2007)

Columns and labels:
[1] = Chemical stability assessed as hydrolysis at pH 3 to 9 after 1.5 hrs; assay type: physicochemical; settings: buffer, pH 3, 1.5 h
[2] = Chemical stability assessed as hydrolysis at pH below 1; assay type: physicochemical
[3] = Chemical stability assessed as hydrolysis at pH more than 10; assay type: physicochemical
[4] = Photostability after 30 mins assessed by fluorescence intensity; assay type: ADME; settings: 0.5 h

| Activity [1] | Activity [2] | Activity [3] | Fluorescence intensity [4] [%] | SMILES |
| --- | --- | --- | --- | --- |
| Not Active | Active | Active | – | CCCN1/C(=C/C=C2\CCCC(/C=C/C3=[N+](CCC)c4ccccc4C3(C)C)=C2OC(C)=O)C(C)(C)c2ccccc21.[I-] |
| – | – | – | < 15 | CCCN1/C(=C/C=C2\CCC/C(=C\C=C3\N(CCC)c4ccccc4C3(C)C)C2=O)C(C)(C)c2ccccc21 |
